The record followed here is patent US12091425B2 (AMGEN INC., priority 2016, dated 2024).

T1 sequence (Q07820 171-327): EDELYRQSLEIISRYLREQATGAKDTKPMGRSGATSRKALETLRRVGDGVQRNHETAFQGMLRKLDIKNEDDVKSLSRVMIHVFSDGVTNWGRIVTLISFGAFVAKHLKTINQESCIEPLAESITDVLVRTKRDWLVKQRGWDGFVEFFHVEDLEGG

One assay has as its target T1, Mcl-1/Bim interaction, recombinant human Mcl-1 (171-327) (Homo sapiens, UniProt Q07820).
T1 construct: made in house
Put plainly: Cell free Mcl-1: Bim Affinity Assay (Mcl-1 HTRF). The assay is classed as binding. The following applies: TR-FRET, 0.1 nM Mcl-1 (171-327), 0.05 nM biotin-Bim (51-76). The essentials:
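Read-out is time-resolved FRET after overnight incubation, using a biotin-labelled peptide from human Bim (51-76) as the binding partner; IC50 was derived from competition curves.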
On the technique in general: In TR-FRET formats the signal depends on donor and acceptor labels being close together.
For orientation: IC50 means the concentration that gives 50% inhibition. On to `CC[C@@H]1CC/C=C/[C@H](OCCO)[C@@H]2CC[C@H]2CN2C[C@@]3(CCCc4cc(Cl)ccc43)COc3ccc(cc32)C(=O)NS1(=O)=O` [Example 970, (1S,3′R,6′R,7′S,8′E,12′R)-6-chloro-12′-ethyl-7′-(2-hydroxyethoxy)-3,4-dihydro-2H,15′H-spiro[naphthalene-1,22′-[20]oxa[13]thia[1,14]diazatetracyclo[14.7.2.0^3,6.0^19,24]pentacosa [8,16,18,24]tetraen]-15′-one 13′,13′-dioxide], for which the IC50 amounted to 0.859 nM.
Same read-out and setting: the result for `COc1ccc(CN2CCCCS(=O)(=O)NC(=O)c3ccc4c(c3)N(C[C@@H]3CC[C@H]3C2=O)C[C@@]2(CCCc3cc(Cl)ccc32)CO4)cc1` [Example 96, (1S,3′R,6′R)-6-chloro-8′-(4-methoxybenzyl)-3,4-dihydro-2H,7′H,15′H-spiro[naphthalene-1,22′-[20]oxa[13]thia[1,8,14]triazatetracyclo[14.7.2.0^3,6.0^19,24]pentacosa[16,18,24]trien]-7′,15′-dione 13′,13′-dioxide] reads 31.7 nM.
Turning to `CC[C@@H]1CC/C=C/[C@H](OCC(=O)NC)[C@@H]2CC[C@H]2CN2C[C@@]3(CCCc4cc(Cl)ccc43)COc3ccc(cc32)C(=O)NS1(=O)=O` [Example 974, 2-(((1S,3′R,6′R,7′S,8′E,12′R)-6-chloro-12′-ethyl-13′,13′-dioxido-15′-oxo-3,4-dihydro-2H-spiro[naphthalene-1,22′-[20]oxa[13]thia[1,14]diazatetracyclo[14.7.2.0^3,6.0^19,24]pentacosa [8,16,18,24]tetraen]-7′-yl)oxy)-N-methylacetamide], the IC50 was 0.716 nM.
In the case of `CC[C@@H]1CC/C=C/[C@H](OCCN2CCOCC2)[C@@H]2CC[C@H]2CN2C[C@@]3(CCCc4cc(Cl)ccc43)COc3ccc(cc32)C(=O)NS1(=O)=O` [Example 984, (1S,3′R,6′R,7′S,8′E,12′R)-6-chloro-12′-ethyl-7′-(2-(4-morpholinyl)ethoxy)-3,4-dihydro-2H,15′H-spiro[naphthalene-1,22′-[20]oxa[13]thia[1,14]diazatetracyclo[14.7.2.0^3,6.0^19,24]pentacosa [8,16,18,24]tetraen]-15′-one 13′,13′-dioxide], the IC50 is 1.09 nM.

The same assay, now with this note: cell free Mcl-1:Bim TR-FRET, recombinant human Mcl-1 (171-327).
For the compound `O=C1NS(=O)(=O)CCCCC(O)C(O)C2CCC2CN2CC3(CCCc4cc(Cl)ccc43)COc3ccc1cc32` (single isomer, unassigned) [Example 857, (1S,3′R,6′R,7′R,8′R)-6-chloro-7′,8′-dihydroxy-3,4-dihydro-2H,15′H-spiro[naphthalene-1,22′-[20]oxa[13]thia[1,14]diazatetracyclo[14.7.2.0^3,6.0^19,24]pentacosa [16,18,24]trien]-15′-one 13′,13′-dioxide or (1S,3′R,6′R,7′S,8′S)-6-chloro-7′,8′-dihydroxy-3,4-dihydro-2H,15′H-spiro[naphthalene-1,22′-[20]oxa[13]thia[1,14]diazatetracyclo[14.7.2.0^3,6.0^19,24]pentacosa [16,18,24]trien]-15′-one 13′,13′-dioxide], the IC50 came out at 8.46 nM.
For the compound `O=C1NS(=O)(=O)CCC[C@@H]2C[C@H]2[C@H](O)[C@@H]2CC[C@H]2CN2C[C@@]3(CCCc4cc(Cl)ccc43)COc3ccc1cc32` (single isomer, unassigned) [Example 950], the IC50 is 1.49 nM.
Same read-out and setting: for `O=C1NS(=O)(=O)CCCCC[C@@H]2CC[C@H]2CN2C[C@@]3(CCCc4ccccc43)COc3ccc1cc32` [Example 823, (1S,3′R,6′R)-3,4-dihydro-2H,14′H-spiro[naphthalene-1,21′-[19]oxa[12]thia[1,13]diazatetracyclo[13.7.2.0^3,6.0^18,23]tetracosa [15,17,23]trien]-14′-one 12′,12′-dioxide] the value was 48.2 nM; for `COC1C=CCCC(C(C)(C)O)S(=O)(=O)NC(=O)c2ccc3c(c2)N(CC2CCC21)CC1(CCCc2cc(Cl)ccc21)CO3` (single isomer, unassigned) [Example 682], 1.78 nM.
